Measured values taken from patent publication US20130079345A1, “[…] ACTIVE DISUBSTITUTED TRIAZINE DERIVATIVES” (BAYER INTELLECTUAL PROPERTY GMBH, priority 2010, published 2013).
Structures can show the parent of a compound that is named as a salt.

How the values were obtained:
HeLa cells = test: Cell viability, HeLa cells; type: cell-based; settings: Homo sapiens
Procedure: HeLa- or MDAMB468-Cells or MATU ADR, H460, DU145, CACO-2 or B16F10 cells were maintained in RPMI 1640 or McCoy's 5A cell culture medium+glutamine (PAN Biotech GmbH, Aidenbach, Germany; order no. P04-22100; P04-05500) supplemented with 10% fetal calf serum “Gold” (PAA Laboratories GmbH, Pasching, Austria; order no. A15-151) and grown at 37° C., 5% CO2. For the cell viability assay, cells were seeded with a density of 400 (Hela cells, DSMZ Braunschweig order no. ACC57) or 800 (MDAMB468 cells, ATCC order no. HTB-132) per well in 25 μL in 384-well plates (Greiner Bio-One, Frickenhausen, Germany; order no. 781080). After overnight incubation at 37° C./5% CO2, 25 nL or 75 nL compound were added to each sample well by using BIOMEK FXP Laboratory Automation Workstation (Beckman Coulter, USA). Wells with cells and 0.1% or 0.3% DMSO in culture medium were used as positive controls, wells with cells and 10 μM staurosporine in culture medium were used as negative controls. The cells were incubated with the compounds for 72 h at 37° C./5% CO2. For measurement of cell viability […] Cell Titer Glo reagent (Promega, Madison, USA; order no. G7573), 1:2 diluted with cell culture medium, was added to each well. The 384well-plates were placed for 2 min on an orbital microplate shaker and incubated for further 10 min at room temperature to stabilize the luminescence signal. Luminescence was measured by Envision Plate Reader (Perkin Elmer, USA). EC50 values were calculated with the software Excel Fit (IDBS, Guildford, UK) from 3-fold dilution series comprising at least 8 concentrations in duplicates.
Cultivated tumour cells (NCl-H460, human non-small cell lung carcinoma cells, ATCC HTB-177; DU 145, hormone-independent human prostate carcinoma cells, ATCC HTB-81; HeLa-MaTu, human cervical carcinoma cells, EPO-GmbH, Berlin; HeLa-MaTu-ADR, multidrug-resistant human cervical carcinoma cells, EPO-GmbH, Berlin; HeLa human cervical tumour cells, ATCC CCL-2; Caco-2 human colorectal carcinoma, ATCC HTB-37; B16F10 mouse melanoma cells, ATCC CRL-6475) were plated at a density of 5,000 cells/well (DU145, HeLa-MaTu-ADR), 3,000 cells/well (NCl-H460, HeLa-MaTu, HeLa), 1,500 cells/well (Caco-2), or 1,000 cells/well (B16F10) in a 96-well multititer plate in 200 μL of their respective growth medium supplemented with 10% fetal calf serum. After 24 hours, the cells of one plate (zero-point plate) were stained with crystal violet (see below), while the medium of the other plates was replaced by fresh culture medium (200 μl), to which the test substances were added in various concentrations (0 μM as well as in the range of 0.001 to 10 μM; the final concentration of the solvent dimethyl sulfoxide was 0.5%). The cells were incubated in the presence of test substances for 4 days. Cell proliferation was determined by staining the cells with crystal violet: The cells were fixed by adding 20 μl/measuring point of an 11% glutaric aldehyde solution at room temperature for 15 minutes. After three washing cycles of the fixed cells with water, the plates were dried at room temperature. The cells were stained by adding 100 μl/measuring point of a 0.1% crystal violet solution (pH 3.0). After three washing cycles of the stained cells with water, the plates were dried at room temperature. The dye was dissolved by adding 100 μl/measuring point of a 10% acetic acid solution. The extinction was determined by photometry at a wavelength of 595 nm. The change of cell number, in percent, was calculated by normalization of the measured values to the extinction values of the zero-point plate (equivalent to 0%) and the extinction of the untreated (0 μm) cells (equivalent to 100%). The IC50 values were determined by means of a 4 parameter fit using the company's own software.

CDK2/CycE = target: T1, CDK2/CycE (Homo sapiens, UniProt P24941); test: CDK2/CycE kinase assay (TR-FRET); type: biochemical; settings: ATP 10 μM
T1 construct: GST; purchased ProQinase GmbH (Freiburg, Germany); host or cells: insect cells (Sf-9)
Text: CDK2/CycE-inhibitory activity of compounds of the present invention was quantified employing the CDK2/CycE TR-FRET assay as described in the following paragraphs.
Recombinant fusion proteins of glutathione S-transferase (GST) and human CDK2 and of GST and human CycE, expressed in insect cells (Sf-9) and purified by glutathion-sepharose affinity chromatography, were purchased from ProQinase GmbH (Freiburg, Germany). A biotinylated peptide biotin-Ttds-[…] (C-terminus in amide form), which can be purchased from e.g the company JERINI Peptide Technologies (Berlin, Germany), was used as a substrate for the kinase reaction.
For the assay, 50 nl of a 100-fold concentrated solution of the test compound in DMSO was pipetted into a well of a black low-volume 384-well microtiter plate (Greiner Bio-One, Frickenhausen, Germany), 2 μl of a solution of CDK2/CycE in aqueous assay buffer [50 mM Tris/HCl pH 8.0], 10 mM MgCl2, 1.0 mM dithiothreitol, 0.1 mM sodium ortho-vanadate, 0.01% (v/v) Nonidet-P40 (Sigma)] were added. The mixture was incubated at 22° C. for 15 min to allow pre-binding of the test compounds to the enzyme before the start of the kinase reaction. […] The resulting mixture was incubated at 22° C. for 25 minutes. The concentration of CDK2/CycE was adjusted depending on the activity of the enzyme lot and was chosen appropriately for measurements in the linear range of the assay. Typical concentrations were in the range of 130 ng/ml. The reaction was stopped by the addition of 5 μl of a solution of TR-FRET detection reagents (0.2 μM streptavidine-XL and 1 nM anti-RB(pSer807/pSer811)-antibody from BD Pharmingen [#558389] and 1.2 nM LANCE EU-W1024 labeled anti-mouse IgG antibody [Perkin-Elmer, product no. AD0077]) in an aqueous EDTA-solution (100 mM EDTA, 0.2% (w/v) bovine serum albumin in 100 mM HEPES/NaOH, pH 7.0).
The resulting mixture was incubated at 22° C. for one hour to allow the formation of a complex between the phosphorylated biotinylated peptide and the detection reagents. Subsequently, the amount of phosphorylated substrate was evaluated by measuring the resonance energy transfer from the Eu-chelate to the streptavidine-XL. Therefore, the fluorescence emissions at 620 nm and 665 nm after excitation at 350 nm were measured in a high time-resolved fluorometry (HTRF) reader, e.g. a Rubystar (BMG Labtechnologies, Offenburg, Germany) or a Viewlux (Perkin-Elmer). The ratio of the emissions at 665 nm and at […] was taken as a measure for the amounts of phosphorylated substrate. The data were normalised, i.e. enzyme reaction without inhibitor corresponds to 0% inhibition, and all other assay components in the absence of the enzyme correspond to 100% inhibition. IC50 values were calculated by a 4-parameter fit using in-house software.

| SMILES | IC50 (HeLa cells) [nM] | IC50 (CDK2/CycE; values in nM) [nM] | IC50 (CDK2/CycE; values given in μM) [nM] |
| --- | --- | --- | --- |
| COc1ccccc1-c1ncnc(Nc2cccc(CS(N)(=O)=O)c2)n1 [B1′, 3-[(4-(2-Methoxyphenyl)-1,3,5-triazin-2-yl)amino]benzenemethanesulfonamide trifluoroacetic acid salt] | 3200 | – | – |
| COc1cc(F)ccc1-c1ncnc(Nc2cccc(CS(N)(=O)=O)c2)n1 [B2′, 1-(3-{[4-(4-fluoro-2-methoxyphenyl)-1,3,5-triazin-2-yl]amino}phenyl)methanesulfonamide hydrochloride] | – | 670 | – |
| NS(=O)(=O)Cc1cccc(Nc2ncnc(-c3ccccc3OCc3ccccc3)n2)c1 [B13′, 3-[(4-(2-Benzyloxyphenyl)-1,3,5-triazin-2-yl)amino]benzenemethanesulfonamide trifluoroacetic acid salt] | 310 | – | – |
| COc1ccccc1-c1ncnc(Nc2cccc(S(N)(=O)=O)c2)n1 [C1′, 3-[(4-(2-Methoxyphenyl)-1,3,5-triazin-2-yl)amino]benzenesulfonamide trifluoroacetic acid salt] | 1000 | – | – |
| COc1ccccc1-c1ncnc(Nc2cccc(CS(N)(=O)=O)c2)n1 [Compound B1, 3-[(4-(2-Methoxyphenyl)-1,3,5-triazin-2-yl)amino]benzenemethanesulfonamide] | – | – | 1800 |
| COc1cc(F)ccc1-c1ncnc(Nc2cccc(CS(N)(=O)=O)c2)n1 [Compound B2, 3-[(4-(4-Fluoro-2-methoxyphenyl)-1,3,5-triazin-2-yl)amino]benzenemethanesulfonamide] | 1000 | 930 | – |
| NS(=O)(=O)Cc1cccc(Nc2ncnc(-c3ccccc3OCc3ccccc3)n2)c1 [Compound B13, 3-[(4-(2-Benzyloxyphenyl)-1,3,5-triazin-2-yl)amino]benzenemethanesulfonamide] | – | 380 | – |
| NS(=O)(=O)Cc1cccc(Nc2ncnc(-c3ccccc3Oc3ccccc3)n2)c1 [Compound B14, 1-(3-{[4-(2-phenoxyphenyl)-1,3,5-triazin-2-yl]amino}phenyl)methanesulfonamide] | – | – | 4000 |
| CNS(=O)(=O)Cc1cccc(Nc2cc(-c3ccccc3OC)ncn2)c1 [Ref2, C-{3-[6-(2-Methoxy-phenyl)-pyrimidin-4-ylamino]-phenyl}-N-methyl methanesulfonamide, reference compound] | 4600 | – | 1600 |
| COc1ccccc1-c1cc(Nc2cccc(CS(=O)(=O)N(C)C)c2)ncn1 [Ref4, C-{3-[6-(2-Methoxy-phenyl)-pyrimidin-4-ylamino]-phenyl}-N,N-dimethylmethanesulfonamide, reference compound] | 6100 | – | 2700 |

The next lines start with the values.

| IC50 (HeLa cells) [nM] | IC50 (CDK2/CycE; values in nM) [nM] | IC50 (CDK2/CycE; values given in μM) [nM] | SMILES |
| --- | --- | --- | --- |
| 2700 | 880 | – | CC(C)Oc1cc(F)ccc1-c1ncnc(Nc2cccc(CS(N)(=O)=O)c2)n1 [Compound U2, 1-[3-({4-[4-fluoro-2-(propan-2-yloxy)phenyl]-1,3,5-triazin-2-yl}amino)phenyl]methanesulfonamide] |
| 10000 | – | 14000 | N#Cc1cc(F)ccc1-c1ncnc(Nc2cccc(CS(N)(=O)=O)c2)n1 [Compound U3, 1-(3-{[4-(2-cyano-4-fluorophenyl)-1,3,5-triazin-2-yl]amino}phenyl)methanesulfonamide] |
| 1200 | 930 | – | COc1cc(F)c(F)cc1-c1ncnc(Nc2cccc(CS(N)(=O)=O)c2)n1 [Compound U7, 1-(3-{[4-(4,5-difluoro-2-methoxyphenyl)-1,3,5-triazin-2-yl]amino}phenyl)methanesulfonamide] |
| 4200 | 170 | – | COc1cc(F)ccc1-c1ncnc(Nc2ccc(S(C)(=O)=O)nc2)n1 [Compound U8, 4-(4-fluoro-2-methoxyphenyl)-N-[6-(methylsulfonyl)pyridin-3-yl]-1,3,5-triazin-2-amine] |
